This passage reports IC50 and Activity results from ChEMBL document CHEMBL1143343, “Cooperative alkylation of double-strand human telomere repeat sequences by PI polyamides with 11-base-pair recognition based on a heterotrimeric design” (Bioorg Med Chem, 2009).

The test system of assay [1] is Jurkat. Put plainly: Cytotoxicity against human Jurkat cells after 48 hrs by WST-8 assay in presence of 10 uM distamycin A pretreated 24 hrs before compound addition. In kind it is functional, cell-based.
Assay [2] concerns Calf thymus DNA. Description: Binding affinity to human telomeric repeat sequence in 219 bp calf thymus DNA fragment assessed as DNA alkylating activity at 20 to 500 nM after 12 hrs by PAGE. In kind it is nucleic-acid assay.
In assay [3] the test system is Calf thymus DNA. Put plainly: Binding affinity to site 4 human telomeric 5'GGTTAGGGTTA3' sequence in 219 bp calf thymus DNA fragment assessed as DNA alkylating activity at 20 to 500 nM after 12 hrs by PAGE in presence of {3-[(4-{[4-({4-[(4-Acetylamino-1-methyl-1H-pyrrole-2-carbonyl)-amino]-1-methyl-1H-pyrrole-2-carbonyl}-amino)-1-methyl-1H-pyrrole-2-carbonyl]-amino}-1-methyl-1H-pyrrole-2-carbonyl)-amino]-propyl}-dimethyl-ammonium. Format: nucleic-acid assay.

Assay [4] deals with Jurkat. Put plainly: Cytotoxicity against human Jurkat cells after 48 hrs by WST-8 assay. In kind it is functional, cell-based.
The test system of assay [5] is Calf thymus DNA. Description: Binding affinity to site 3 human telomeric 5'GGTTAGGGTTA3' sequence in 219 bp calf thymus DNA fragment assessed as DNA alkylating activity at 20 to 500 nM after 12 hrs by PAGE in presence of distamycin A. In kind it is nucleic-acid assay.
Assay [6] has as its system Calf thymus DNA. Description: Binding affinity to human telomeric repeat sequence in 219 bp calf thymus DNA fragment assessed as DNA alkylating activity at 20 to 500 nM after 12 hrs by PAGE in presence of 3-(4-(4-(4-(3-(3-(4-(4-(4-(4-acetamido-1-methyl-1H-pyrrole-2-carboxamido)-1-methyl-1H-pyrrole-2-carboxamido)-1-methyl-1H-pyrrole-2-carboxamido)-1-methyl-1H-pyrrole-2-carboxamido)propanamido)propanamido)-1-methyl-1H-pyrrole-2-carboxamido)-1-methyl-1H-pyrrole-2-carboxamido)-1-methyl-1H-pyrrole-2-carboxamido)-N,N-dimethylpropan-1-aminium. In kind it is nucleic-acid assay.

Assay [7] relates to Calf thymus DNA. Description: Binding affinity to site 3 human telomeric 5'GGTTAGGGTTA3' sequence in 219 bp calf thymus DNA fragment assessed as DNA alkylating activity at 20 to 500 nM after 12 hrs by PAGE in presence of {3-[(4-{[4-({4-[(4-Acetylamino-1-methyl-1H-pyrrole-2-carbonyl)-amino]-1-methyl-1H-pyrrole-2-carbonyl}-amino)-1-methyl-1H-pyrrole-2-carbonyl]-amino}-1-methyl-1H-pyrrole-2-carbonyl)-amino]-propyl}-dimethyl-ammonium. In kind it is nucleic-acid assay.

For assay [8], the system named is Jurkat. Put plainly: Cytotoxicity against human Jurkat cells after 48 hrs by WST-8 assay in presence of 10 uM {3-[(4-{[4-({4-[(4-Acetylamino-1-methyl-1H-pyrrole-2-carbonyl)-amino]-1-methyl-1H-pyrrole-2-carbonyl}-amino)-1-methyl-1H-pyrrole-2-carbonyl]-amino}-1-methyl-1H-pyrrole-2-carbonyl)-amino]-propyl}-dimethyl-ammonium pretreated 24 hrs before compound addition. In kind it is functional, cell-based.

In assay [9] the test system is Calf thymus DNA. Description: Binding affinity to site 2 human telomeric 5'GGTTAGGGTTA3' sequence in 219 bp calf thymus DNA fragment assessed as DNA alkylating activity at 20 to 500 nM after 12 hrs by PAGE in presence of distamycin A. In kind it is nucleic-acid assay.
Assay [10] relates to Calf thymus DNA. Put plainly: Binding affinity to site 4 human telomeric 5'GGTTAGGGTTA3' sequence in 219 bp calf thymus DNA fragment assessed as DNA alkylating activity at 20 to 500 nM after 12 hrs by PAGE in presence of distamycin A. Format: nucleic-acid assay.
The subject of assay [11] is Calf thymus DNA. Put plainly: Binding affinity to human telomeric repeat sequence in 219 bp calf thymus DNA fragment assessed as DNA alkylating activity at 200 nM after 12 hrs by PAGE in presence of {3-[(4-{[4-({4-[(4-Acetylamino-1-methyl-1H-pyrrole-2-carbonyl)-amino]-1-methyl-1H-pyrrole-2-carbonyl}-amino)-1-methyl-1H-pyrrole-2-carbonyl]-amino}-1-methyl-1H-pyrrole-2-carbonyl)-amino]-propyl}-dimethyl-ammonium. In kind it is nucleic-acid assay.

The subject of assay [12] is Calf thymus DNA. Description: Binding affinity to site 2 human telomeric 5'GGTTAGGGTTA3' sequence in 219 bp calf thymus DNA fragment assessed as DNA alkylating activity at 20 to 500 nM after 12 hrs by PAGE in presence of {3-[(4-{[4-({4-[(4-Acetylamino-1-methyl-1H-pyrrole-2-carbonyl)-amino]-1-methyl-1H-pyrrole-2-carbonyl}-amino)-1-methyl-1H-pyrrole-2-carbonyl]-amino}-1-methyl-1H-pyrrole-2-carbonyl)-amino]-propyl}-dimethyl-ammonium. In kind it is nucleic-acid assay.

In assay [13] the test system is Calf thymus DNA. Description: Binding affinity to human telomeric repeat sequence in 219 bp calf thymus DNA fragment assessed as DNA alkylating activity at 200 nM after 12 hrs by PAGE in presence of distamycin A. In kind it is nucleic-acid assay.

The source made the active and inactive calls. The rule behind the calls is not given here.

Regarding `CC(=O)Nc1cn(C)c(C(=O)Nc2cn(C)c(C(=O)Nc3cn(C)c(C(=O)NCCC(=O)NCCC(=O)Nc4cn(C)c(C(=O)Nc5cn(C)c(C(=O)Nc6cn(C)c(C(=O)Nc7ccc8[nH]c(C(=O)N9CC(CCl)c%10c9cc(O)c9ccccc%109)cc8c7)n6)n5)n4)n3)n2)n1` (stereo not drawn), the IC50 amounted to 32 nM in [1], 100 nM in [4] and 79 nM in assay [8]. In addition, in [2], the outcome was inactive. In addition, the outcome in assay [3], in [5], in assay [6], in assay [7], in assay [9] and in assay [10] was Active. Further, the outcome in assay [11], in assay [12] and in assay [13] was Active.
